What was measured:
Male NMRI mice = experiment: Place recognition test (Y-maze), reversal of scopolamine-induced amnesia; type: in vivo; conditions: scopolamine 1 mg/kg i.p.
Description: In Vivo Pharmacology (Place Recognition Test)
Animals: Male NMRI mice (Toxicoop, Hungary)
Substances: Scopolamine was dissolved in saline and administered at 1 mg/kg dose i.p. Test compounds were administered 30 minutes before the acquisition trial (T1) and scopolamine after the acquisition trial at a volume of 0.1 ml/10 g.
Procedure: The task was carried out in a transparent plexiglass Y-maze (each arm has a length of 40 cm, an inner width of 11 cm and a height of 30 cm). Numerous visual cues were placed around the arms and were kept constant during the experiment. The test consisted of two trials (T1 and T2) separated by an intertrial interval of 30 minutes. Mice were placed in the starting arm of the maze at the beginning of each trial. In T1, one of the symmetric arms of the maze was closed (it will be novel in T2) and the animals were allowed to explore the maze for 5 minutes (acquisition phase). In T2, mice had free access to all three arms for 2 minutes (retrieval phase). The time spent with exploration in the novel and familiar arms during T2 was measured. Differences between the exploration times spent in the familiar vs. novel arms of the maze for each group were evaluated by MANOVA, followed by Duncan post hoc test.

human α7 nAchR = biological target: T1, human α7 nAchR (Homo sapiens, UniProt P36544); experiment: Human α7 nicotinic acetylcholine receptor [Ca2+]i assay (Ca2+ fluorometry, PAM concentration-response); type: cell-based; conditions: Flp-In 293 cells expressing human α7 nAchR and human RIC-3; in presence of saturating agonist (mostly PNU-282987, 1 μM)
T1 construct: expressed in transfected cells
T1 sequence (P36544 23-502): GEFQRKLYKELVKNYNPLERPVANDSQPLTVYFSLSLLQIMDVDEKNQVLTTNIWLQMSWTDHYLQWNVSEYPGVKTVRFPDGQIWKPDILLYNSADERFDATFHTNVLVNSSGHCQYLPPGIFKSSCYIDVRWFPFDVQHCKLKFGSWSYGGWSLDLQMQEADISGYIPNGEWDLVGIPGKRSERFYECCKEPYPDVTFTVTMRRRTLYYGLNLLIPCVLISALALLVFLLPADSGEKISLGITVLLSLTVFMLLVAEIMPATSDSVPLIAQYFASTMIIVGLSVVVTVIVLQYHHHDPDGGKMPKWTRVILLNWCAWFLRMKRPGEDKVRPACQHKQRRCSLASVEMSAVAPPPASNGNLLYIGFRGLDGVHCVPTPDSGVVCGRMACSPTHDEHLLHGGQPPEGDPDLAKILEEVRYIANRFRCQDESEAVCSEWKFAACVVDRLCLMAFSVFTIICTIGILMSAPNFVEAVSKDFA
Description: Human α7 Nicotinic Acetylcholine Receptor [Ca2+]i Assay
Cells: Flp-In 293 cells stably expressing human α7 nAchR and human RIC-3 (α7 cells, generated in house.)
Materials: 96-well plates coated with PDL (Falcon), culture medium, assay buffer, DMSO, FLIPR Calcium 5 kit (Molecular Devices), probenecid, agonist and PAM test compounds.
Brief Description of the Method (Ca^2+ Fluorometry)
α7 cells stably expressing human α7 nAchR were cultured in the medium detailed above, and were split twice a week. For the fluorometric measurements of cytosolic Ca^2+ ion concentration ([Ca^2+]i) cells were seeded in 96-well microplates at a density of 60000 cells/well and maintained overnight in a tissue culture incubator at 37° C. under an atmosphere of 95% air/5% CO2. The plating medium was identical with the culture medium. 50 μl of the growth medium was aspirated with a cell washer (BioTek Elx405UCVWS). Then 50 μl/well Calcium 5 kit diluted 2-fold in assay buffer was added manually using an 8-channel pipette. After an incubation period (20 minutes, 37° C.) 50 μl/well assay buffer containing vehicle (DMSO, 4% added) or reference α7 PAMs (4× of the final concentration) were added manually and the cells were incubated for an additional 10 minutes at 37° C. Baseline and agonist-evoked [Ca^2+]i-changes were monitored with FlexStation II (Molecular Devices, Sunnyvale, Calif.), a plate reader fluorometer with integrated 8-channel fluid addition capability. Fluorescence measurements were carried out at 37° C. The dye was excited at 485 nm, emission was sampled at 525 nm at 1.4-s intervals. Baseline was recorded for 20 seconds followed by agonist stimulation. 50 μl 4× concentrated agonist solution was added to the cells using the pipettor of FlexStation II and fluorescence was monitored for an additional 40 seconds. Final DMSO concentration was 1% for all treatments. To achieve this, a series of DMSO stock solutions were prepared from all test compounds. These stocks were stored under 0° C. and were further diluted in assay buffer to obtain the desired final concentration immediately before the measurement. Agonist and PAM concentration-response studies were conducted in the presence of saturating concentrations of PAMs (mostly PNU-120596, 5 μM) and agonists (mostly PNU-282987, 1 μM), respectively. Results were expressed as ΔF/F values using SoftMax Pro software (Molecular Devices), where F was the resting fluorescence preceding agonist application and ΔF was the increase in fluorescence at a given time (ΔF=maximum fluorescence intensity values after stimulation minus average fluorescence intensity values before stimulation). In all experiments, all treatments were measured in multiple wells in parallel, and the mean ΔF/F values were used for analysis.

EC50 (human α7 nAchR) [nM] | Structure (SMILES) | reversal of the scopolamine-induced amnesia in the place recognition assay (exploration time novel vs. familiar arm, significance) (Male NMRI mice; 3 mg/kg i.p.) | reversal of the scopolamine-induced amnesia in the place recognition assay (exploration time novel vs. familiar arm, significance) (Male NMRI mice; 10 mg/kg i.p.) | reversal of the scopolamine-induced amnesia in the place recognition assay (exploration time novel vs. familiar arm, significance) (Male NMRI mice; 1 mg/kg i.p.)
 | O=C1CC2(CN(C(=O)NCc3ccc4[nH]c(C(F)(F)F)cc4c3)C2)Oc2cc(F)ccc21 [Example 61, 7′-fluoro-4′-oxo-N-{[2-(trifluoromethyl)-1H-indol-5-yl]methyl}-3′,4′-dihydrospiro[azetidine-3,2′-[1]benzopyran]-1-carboxamide] | ++ (^++p < 0.01) | +++ (^+++p < 0.001) | 
360 | O=C1CC2(CN(C(=O)NCc3ccc4[nH]c(Cl)cc4c3)C2)Oc2cc(Cl)ccc21 [Example 43, 7′-chloro-N-[(2-chloro-1H-indol-5-yl)methyl]-4′-oxo-3′,4′-dihydrospiro[azetidine-3,2′-[1]benzopyran]-1-carboxamide] | +++ (^+++p < 0.001) | +++ (^+++p < 0.001) | + (^+p < 0.05)
390 | O=C1CC2(CN(C(=O)NCc3ccc4[nH]ccc4c3)C2)Oc2ccc(Cl)cc21 [Example 26, 6′-chloro-N-[(1H-indol-5-yl)methyl]-4′-oxo-3′,4′-dihydrospiro[azetidine-3,2′-[1]benzopyran]-1-carboxamide] | + (^+p < 0.05) |  | 
100 | Cn1ccc2cc(CNC(=O)N3CCC4(CCc5cc(Cl)ccc5O4)CC3)ccc21 [Example 10, 6-chloro-N-[(1-methyl-1H-indol-5-yl)methyl]-3,4-dihydrospiro[1-benzopyran-2,4′-piperidine]-1′-carboxamide] |  |  | 
220 | Cn1cc(F)c2cc(CNC(=O)N3CC4(CC(=O)c5cc(F)ccc5O4)C3)ccc21 [Example 38] |  |  | 
280 | COc1ccc2c(c1)OC1(CCN(C(=O)NCc3ccc4c(ccn4C)c3)CC1)CC2=O [Example 21] |  |  | 
190 | Cn1ccc2cc(CNC(=O)N3CC4(CC(=O)c5ccc(F)cc5O4)C3)ccc21 [Example 6, 7′-fluoro-N-[(1-methyl-1H-indol-5-yl)methyl]-4′-oxo-3′,4′-dihydrospiro[azetidine-3,2′-[1]benzopyran]-1-carboxamide] | ++ (^++p < 0.01) | +++ (^+++p < 0.001) | + (^+p < 0.05)
470 | Cn1ccc2cc(CNC(=O)N3CC4(CC(=O)c5cc(Cl)cc(Cl)c5O4)C3)cnc21 [Example 58] |  |  | 
400 | Cn1ccc2cc(CNC(=O)N3CCC4(CC(=O)c5cc(Cl)ccc5O4)C3)ccc21 (single isomer, unassigned) [Example 5b] |  |  | 
60 | Cc1cc2cc(CNC(=O)N3CC4(CC(=O)c5cc(F)cc(F)c5O4)C3)ccc2[nH]1 [Example 41, 6′,8′-difluoro-N-[(2-methyl-1H-indol-5-yl)methyl]-4′-oxo-3′,4′-dihydrospiro[azetidine-3,2′-[1]benzopyran]-1-carboxamide] | + (^+p < 0.05) |  | + (^+p < 0.05)
750 | Cc1cc2cc(CNC(=O)N3CC4(CC(=O)c5ccc(C(F)(F)F)cc5O4)C3)cnc2n1C [Example 65] |  |  | 
430 | Cn1ccc2cc(CNC(=O)N3CCC4(CC(=O)c5cc(Cl)ccc5O4)C3)ccc21 (single isomer, unassigned) [Example 5a] |  |  | 
730 | Cn1cc(Cl)c2cc(CNC(=O)N3CC4(CC(=O)c5cc(F)ccc5O4)C3)cnc21 [Example 39] |  |  | 
500 | Cn1ccc2cc(CNC(=O)N3CC4(CC(=O)c5ccc(C(F)(F)F)cc5O4)C3)cnc21 [Example 59] |  |  | 
850 | Cn1cc(Br)c2cc(CNC(=O)N3CC4(CC(=O)c5cc(F)ccc5O4)C3)cnc21 [Example 53] |  |  | 
120 | Cc1cc2cc(CNC(=O)N3CC4(CC(=O)c5cc(F)ccc5O4)C3)ccc2[nH]1 [Example 1, 6′-Fluoro-N-[(2-methyl-1H-indol-5-yl)methyl]-4′-oxo-3′,4′-dihydrospiro[azetidine-3,2′-[1]benzopyran]-1-carboxamide] |  |  | ++ (^++p < 0.01)
2300 | CN1CCCc2cc(CNC(=O)N3CC4(CC(=O)c5ccc(F)cc5O4)C3)ccc21 [Example 71, 7′-Fluoro-N-[(1-methyl-1,2,3,4-tetrahydroquinolin-6-yl)methyl]-4′-oxo-3′,4′-dihydrospiro[azetidine-3,2′-[1]benzopyran]-1-carboxamide] |  |  | 
120 | Cn1ccc2cc(CNC(=O)N3CC4(CC(=O)c5cc(Cl)ccc5O4)C3)ccc21 [Example 3, 6′-chloro-N-[(1-methyl-1H-indol-5-yl)methyl]-4′-oxo-3′,4′-dihydrospiro[azetidine-3,2′-[1]benzopyran]-1-carboxamide] |  |  | 
210 | Cn1ccc2cc(CNC(=O)N3CCC4(CC(=O)c5cc(Cl)ccc5O4)C3)ccc21 (racemic) [Example 5] |  |  | 
130 | Cn1ccc2cc(CNC(=O)N3CC4(CC(=O)c5ccc(C(F)(F)F)cc5O4)C3)ccc21 [Example 52, N-[(1-methyl-1H-indol-5-yl)methyl]-4′-oxo-7′-(trifluoromethyl)-3′,4′-dihydrospiro[azetidine-3,2′-[1]benzopyran]-1-carboxamide] |  | + (^+p < 0.05) | 
130 | Cn1cc(Cl)c2cc(CNC(=O)N3CC4(CC(=O)c5ccccc5O4)C3)ccc21 [Example 37] |  |  | 
120 | O=C1CC2(CN(C(=O)NCc3ccc4[nH]c(C(F)F)cc4c3)C2)Oc2cc(F)ccc21 [Example 69, N-{[2-(difluoromethyl)-1H-indol-5-yl]methyl}-7′-fluoro-4′-oxo-3′,4′-dihydrospiro[azetidine-3,2′-[1]benzopyran]-1-carboxamide] |  |  | 
150 | Cn1ccc2cc(CNC(=O)N3CC4(CC(=O)c5cc(C(F)(F)F)ccc5O4)C3)ccc21 [Example 50] |  |  | 
230 | Cn1ccc2cc(CNC(=O)N3CC4(CC(=O)c5ccccc5O4)C3)ccc21 [Example 7, N-[(1-methyl-1H-indol-5-yl)methyl]-4′-oxo-3′,4′-dihydrospiro[azetidine-3,2′-[1]benzopyran]-1-carboxamide] | +++ (^+++p < 0.001) | +++ (^+++p < 0.001) | +++ (^+++p < 0.001)
230 | COc1ccc2c(c1)C(=O)CC1(CN(C(=O)NCc3ccc4c(c3)c(Cl)cn4C)C1)O2 [Example 25] |  |  | 

Reference: US20210330650A1, “SPIROCHROMANE DERIVATIVES” (RICHTER GEDEON NYRT., priority 2018, published 2021)
